According to patent US9180118B2, “Thiadiazolidinone derivatives” (University of Rochester, priority 2006, dated 2015):

Key:
CD34+CD10− ALL cells = assay: Viability of CD34+CD10− cells from ALL specimens; format: cell-based; details: Homo sapiens, 24 h
GSK3B (GSK3 beta) = GSK3B (GSK3 beta) (Homo sapiens, UniProt P49841); assay: Kinase assay (single point and titration); format: biochemical; details: TDZD-8 20 μM
PRKCG (PKC gamma) = PRKCG (PKC gamma) (Homo sapiens, UniProt P05129); assay: Kinase assay; format: biochemical
Experimental: (§1) Kinase Assays: Single point and titration assays are performed using protocols (or essentially using protocols) know in the art for kinase activity profiling against a battery of kinase targets, including, for example, those specifically delineated herein. Such assays include, for example, those available from commercial sources, contract research laboratories, and the like.

PRKCZ (PKC zeta) = PRKCZ (PKC zeta) (Homo sapiens, UniProt Q05513); assay: Kinase assay; format: biochemical
Experimental: as §1

FGFR1 = FGFR1 (Homo sapiens, UniProt P11362); assay: Kinase assay; format: biochemical
Experimental: as §1

PRKCE (PKC epsilon) = PRKCE (PKC epsilon) (Homo sapiens, UniProt Q02156); assay: Kinase assay; format: biochemical
Experimental: as §1

PIM1 = PIM1 (Homo sapiens, UniProt P11309); assay: Kinase assay; format: biochemical
Experimental: as §1

PRKACA (PKA) = PRKACA (PKA) (Homo sapiens, UniProt P17612); assay: Kinase assay; format: biochemical
Experimental: as §1

CDK1/cyclin B = CDK1/cyclin B (Homo sapiens, UniProt P06493); assay: Kinase assay; format: biochemical
Experimental: as §1

SYK = SYK (Homo sapiens, UniProt P43405); assay: Kinase assay; format: biochemical
Experimental: as §1

MET (cMet) = MET (cMet) (Homo sapiens, UniProt P08581); assay: Kinase assay; format: biochemical
Experimental: as §1

MAPK14 (p38 alpha) = MAPK14 (p38 alpha) (Homo sapiens, UniProt Q16539); assay: Kinase assay; format: biochemical
Experimental: as §1

IGF1R = IGF1R (Homo sapiens, UniProt P08069); assay: Kinase assay; format: biochemical
Experimental: as §1

BTK = BTK (Homo sapiens, UniProt Q06187); assay: Kinase assay; format: biochemical
Experimental: as §1

MAP2K1 (MEK1) = MAP2K1 (MEK1) (Homo sapiens, UniProt Q02750); assay: Kinase assay; format: biochemical
Experimental: as §1

INSR = INSR (Homo sapiens, UniProt P06213); assay: Kinase assay; format: biochemical
Experimental: as §1

TEK (Tie2) = TEK (Tie2) (Homo sapiens, UniProt Q02763); assay: Kinase assay; format: biochemical
Experimental: as §1

KDR (VEGFR2) = KDR (VEGFR2) (Homo sapiens, UniProt P35968); assay: Kinase assay; format: biochemical
Experimental: as §1

CSNK2A1 (CK2 alpha 1) = CSNK2A1 (CK2 alpha 1) (Homo sapiens, UniProt P68400); assay: Kinase assay; format: biochemical
Experimental: as §1

DYRK3 = DYRK3 (Homo sapiens, UniProt O43781); assay: Kinase assay; format: biochemical
Experimental: as §1

AKT1 (PKB alpha) = AKT1 (PKB alpha) (Homo sapiens, UniProt P31749); assay: Kinase assay; format: biochemical
Experimental: as §1

ERBB2 (HER2) = ERBB2 (HER2) (Homo sapiens, UniProt P04626); assay: Kinase assay; format: biochemical
Experimental: as §1

ROCK1 = ROCK1 (Homo sapiens, UniProt Q13464); assay: Kinase assay; format: biochemical
Experimental: as §1

EGFR (ErbB1) = EGFR (ErbB1) (Homo sapiens, UniProt P00533); assay: Kinase assay; format: biochemical
Experimental: as §1

PRKCA (PKC alpha) = PRKCA (PKC alpha) (Homo sapiens, UniProt P17252); assay: Kinase assay; format: biochemical
Experimental: as §1

STK6 (Aurora A) = STK6 (Aurora A) (Homo sapiens, UniProt O14965); assay: Kinase assay; format: biochemical
Experimental: as §1

JAK3 = JAK3 (Homo sapiens, UniProt P52333); assay: Kinase assay; format: biochemical
Experimental: as §1

FLT3 = FLT3 (Homo sapiens, UniProt P36888); assay: Kinase assay (single point and titration); format: biochemical
Experimental: as §1

PRKCI (PKC iota) = PRKCI (PKC iota) (Homo sapiens, UniProt P41743); assay: Kinase assay (single point and titration); format: biochemical
Experimental: as §1

PRKCB1 (PKC beta I) = PRKCB1 (PKC beta I) (Homo sapiens, UniProt P05771); assay: Kinase assay (single point and titration); format: biochemical
Experimental: as §1

PRKCD (PKC delta) = PRKCD (PKC delta) (Homo sapiens, UniProt Q05655); assay: Kinase assay (single point and titration); format: biochemical
Experimental: as §1

[1] = test system: pro-caspases 3, 8 or PARP; assay: Immunoblot for caspase-dependent apoptotic events; format: cell-based, human; details: TDZD-8 treated cells, data not shown
Experimental: Immunoblots. Cells were prepared and analyzed as previously described.^35 Membrane fractions were prepared using mem-PER eukaryotic membrane protein extraction kit as per manufacturer's instructions (Pierce; Rockford, Ill.). Blots were probed with phospho-PKC (pan) (beta II; Ser660), phospho-PKCalpha/betaII (Thr638/641), total PKCα, PKCβ and FLT3 (Santa Cruz Biotechnology, Calif.), Caspase-3 (Cell Signaling technologies; Danvers, Mass.); caspase-8 and PARP (BD bioscience), cleaved PARP (abcam) or anti-actin (AC-15; Sigma) antibodies.

[2] = titration, read-out: in vitro IC50

PRKCI (PKC iota), sequence (P41743 whole entry): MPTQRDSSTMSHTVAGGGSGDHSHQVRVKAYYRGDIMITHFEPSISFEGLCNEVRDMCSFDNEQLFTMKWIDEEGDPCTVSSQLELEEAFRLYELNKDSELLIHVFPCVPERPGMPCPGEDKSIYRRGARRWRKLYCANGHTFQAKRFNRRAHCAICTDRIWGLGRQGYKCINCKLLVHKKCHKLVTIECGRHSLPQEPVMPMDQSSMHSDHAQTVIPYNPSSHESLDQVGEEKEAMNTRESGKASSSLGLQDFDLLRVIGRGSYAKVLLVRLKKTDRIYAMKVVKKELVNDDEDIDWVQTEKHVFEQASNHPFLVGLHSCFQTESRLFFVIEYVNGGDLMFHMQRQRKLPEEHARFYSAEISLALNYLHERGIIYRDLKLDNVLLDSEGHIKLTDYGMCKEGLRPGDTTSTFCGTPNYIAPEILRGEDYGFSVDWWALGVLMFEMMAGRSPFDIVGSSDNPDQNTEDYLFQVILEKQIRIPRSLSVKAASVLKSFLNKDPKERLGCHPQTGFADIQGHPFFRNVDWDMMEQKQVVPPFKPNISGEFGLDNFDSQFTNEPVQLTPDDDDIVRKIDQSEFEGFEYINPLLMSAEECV
TEK (Tie2), sequence (Q02763 23-1124, species assumed): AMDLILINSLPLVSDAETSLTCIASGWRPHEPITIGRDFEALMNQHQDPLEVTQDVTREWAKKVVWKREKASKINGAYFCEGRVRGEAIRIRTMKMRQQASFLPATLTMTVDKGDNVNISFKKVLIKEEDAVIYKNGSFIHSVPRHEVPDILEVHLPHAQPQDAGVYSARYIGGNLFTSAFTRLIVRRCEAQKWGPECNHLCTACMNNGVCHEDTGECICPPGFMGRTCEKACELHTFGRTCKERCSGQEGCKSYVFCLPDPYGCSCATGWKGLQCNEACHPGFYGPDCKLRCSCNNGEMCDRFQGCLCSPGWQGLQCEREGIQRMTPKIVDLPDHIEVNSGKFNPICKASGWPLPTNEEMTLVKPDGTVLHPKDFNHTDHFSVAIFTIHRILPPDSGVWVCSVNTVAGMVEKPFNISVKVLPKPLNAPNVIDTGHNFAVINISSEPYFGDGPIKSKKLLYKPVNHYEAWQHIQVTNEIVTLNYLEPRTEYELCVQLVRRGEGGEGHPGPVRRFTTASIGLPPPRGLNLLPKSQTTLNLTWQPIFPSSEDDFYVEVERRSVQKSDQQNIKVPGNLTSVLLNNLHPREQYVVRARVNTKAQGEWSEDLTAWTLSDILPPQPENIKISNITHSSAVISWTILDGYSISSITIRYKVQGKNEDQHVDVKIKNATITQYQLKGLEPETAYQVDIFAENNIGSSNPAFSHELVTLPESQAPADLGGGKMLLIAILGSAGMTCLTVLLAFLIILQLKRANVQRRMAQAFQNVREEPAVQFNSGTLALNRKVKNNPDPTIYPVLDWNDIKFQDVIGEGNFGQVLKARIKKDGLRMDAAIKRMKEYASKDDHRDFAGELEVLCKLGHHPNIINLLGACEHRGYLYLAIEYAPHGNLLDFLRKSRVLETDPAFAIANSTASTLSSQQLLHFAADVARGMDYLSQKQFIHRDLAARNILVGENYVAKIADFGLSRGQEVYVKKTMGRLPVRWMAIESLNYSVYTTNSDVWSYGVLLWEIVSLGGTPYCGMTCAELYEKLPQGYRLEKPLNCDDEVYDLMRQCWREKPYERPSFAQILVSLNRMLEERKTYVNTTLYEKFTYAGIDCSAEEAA
FLT3, sequence (P36888 27-993): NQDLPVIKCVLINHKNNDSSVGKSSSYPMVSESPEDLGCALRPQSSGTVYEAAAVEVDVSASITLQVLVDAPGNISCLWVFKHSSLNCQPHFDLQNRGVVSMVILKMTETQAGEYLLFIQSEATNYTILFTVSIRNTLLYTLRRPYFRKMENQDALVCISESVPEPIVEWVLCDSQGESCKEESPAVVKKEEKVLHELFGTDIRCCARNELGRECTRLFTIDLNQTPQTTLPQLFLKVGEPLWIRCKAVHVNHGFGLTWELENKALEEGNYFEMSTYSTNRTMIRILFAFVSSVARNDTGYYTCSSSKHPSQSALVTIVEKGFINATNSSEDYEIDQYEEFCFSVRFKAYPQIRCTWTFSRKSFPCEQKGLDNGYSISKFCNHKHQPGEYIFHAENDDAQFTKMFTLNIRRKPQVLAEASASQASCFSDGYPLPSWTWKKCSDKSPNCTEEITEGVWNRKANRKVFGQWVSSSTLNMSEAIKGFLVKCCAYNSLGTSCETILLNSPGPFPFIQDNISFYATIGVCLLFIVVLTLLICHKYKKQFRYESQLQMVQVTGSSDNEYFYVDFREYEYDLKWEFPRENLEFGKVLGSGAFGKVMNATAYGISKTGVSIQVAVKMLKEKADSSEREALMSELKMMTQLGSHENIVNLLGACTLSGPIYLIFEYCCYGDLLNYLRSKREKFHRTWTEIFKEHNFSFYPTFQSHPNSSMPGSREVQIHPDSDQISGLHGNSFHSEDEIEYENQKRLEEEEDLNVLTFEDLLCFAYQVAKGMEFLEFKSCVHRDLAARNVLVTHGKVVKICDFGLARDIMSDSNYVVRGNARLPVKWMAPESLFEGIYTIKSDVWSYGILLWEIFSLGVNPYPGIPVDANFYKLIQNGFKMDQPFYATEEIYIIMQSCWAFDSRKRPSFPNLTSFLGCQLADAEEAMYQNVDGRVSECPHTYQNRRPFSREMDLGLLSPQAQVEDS
PRKCB1 (PKC beta I), sequence (P05771 whole entry): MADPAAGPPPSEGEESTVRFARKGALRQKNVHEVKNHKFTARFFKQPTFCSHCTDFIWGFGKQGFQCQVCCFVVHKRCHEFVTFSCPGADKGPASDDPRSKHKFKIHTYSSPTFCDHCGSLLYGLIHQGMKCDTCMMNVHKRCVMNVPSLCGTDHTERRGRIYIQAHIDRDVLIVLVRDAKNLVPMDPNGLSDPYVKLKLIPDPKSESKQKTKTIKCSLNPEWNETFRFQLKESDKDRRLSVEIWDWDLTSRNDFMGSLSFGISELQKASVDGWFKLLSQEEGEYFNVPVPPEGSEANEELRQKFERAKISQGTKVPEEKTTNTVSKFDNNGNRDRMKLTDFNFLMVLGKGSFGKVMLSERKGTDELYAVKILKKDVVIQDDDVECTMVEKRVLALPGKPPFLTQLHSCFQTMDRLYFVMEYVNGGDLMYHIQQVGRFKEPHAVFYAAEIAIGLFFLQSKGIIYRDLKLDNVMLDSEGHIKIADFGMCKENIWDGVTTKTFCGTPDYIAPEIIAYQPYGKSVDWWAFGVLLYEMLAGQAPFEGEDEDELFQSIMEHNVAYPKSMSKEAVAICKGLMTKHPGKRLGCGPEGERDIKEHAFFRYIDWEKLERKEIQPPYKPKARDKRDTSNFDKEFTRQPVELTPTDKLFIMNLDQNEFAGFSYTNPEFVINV
GSK3B (GSK3 beta), sequence (P49841 whole entry): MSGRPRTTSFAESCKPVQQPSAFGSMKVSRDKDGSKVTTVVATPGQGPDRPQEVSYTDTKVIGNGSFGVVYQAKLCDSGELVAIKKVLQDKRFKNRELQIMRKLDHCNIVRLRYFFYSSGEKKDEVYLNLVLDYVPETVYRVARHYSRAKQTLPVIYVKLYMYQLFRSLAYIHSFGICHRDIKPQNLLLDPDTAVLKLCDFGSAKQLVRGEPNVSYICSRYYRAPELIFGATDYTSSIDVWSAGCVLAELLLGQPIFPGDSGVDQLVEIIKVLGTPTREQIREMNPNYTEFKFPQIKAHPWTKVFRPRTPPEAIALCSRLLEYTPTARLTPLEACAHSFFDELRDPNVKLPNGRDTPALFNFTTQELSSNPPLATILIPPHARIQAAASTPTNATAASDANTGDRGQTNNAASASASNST
PRKCD (PKC delta), sequence (Q05655 whole entry): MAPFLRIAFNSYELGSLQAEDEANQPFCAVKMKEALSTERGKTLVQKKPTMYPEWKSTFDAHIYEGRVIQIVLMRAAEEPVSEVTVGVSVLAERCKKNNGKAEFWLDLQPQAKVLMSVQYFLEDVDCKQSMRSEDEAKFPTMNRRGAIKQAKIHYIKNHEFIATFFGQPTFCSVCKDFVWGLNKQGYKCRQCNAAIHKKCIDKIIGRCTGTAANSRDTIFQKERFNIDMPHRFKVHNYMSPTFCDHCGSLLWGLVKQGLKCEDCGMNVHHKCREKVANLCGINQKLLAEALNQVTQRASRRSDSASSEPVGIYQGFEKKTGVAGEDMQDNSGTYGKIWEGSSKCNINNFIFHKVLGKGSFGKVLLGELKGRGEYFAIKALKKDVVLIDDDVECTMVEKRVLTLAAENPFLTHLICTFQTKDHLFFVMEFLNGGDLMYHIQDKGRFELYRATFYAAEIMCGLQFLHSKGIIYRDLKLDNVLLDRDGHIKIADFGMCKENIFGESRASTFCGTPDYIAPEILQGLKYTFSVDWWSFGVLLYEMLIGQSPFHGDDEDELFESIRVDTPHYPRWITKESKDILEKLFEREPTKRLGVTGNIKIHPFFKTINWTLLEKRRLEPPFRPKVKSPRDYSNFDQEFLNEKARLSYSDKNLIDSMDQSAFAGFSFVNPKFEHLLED
PIM1, sequence (P11309 whole entry): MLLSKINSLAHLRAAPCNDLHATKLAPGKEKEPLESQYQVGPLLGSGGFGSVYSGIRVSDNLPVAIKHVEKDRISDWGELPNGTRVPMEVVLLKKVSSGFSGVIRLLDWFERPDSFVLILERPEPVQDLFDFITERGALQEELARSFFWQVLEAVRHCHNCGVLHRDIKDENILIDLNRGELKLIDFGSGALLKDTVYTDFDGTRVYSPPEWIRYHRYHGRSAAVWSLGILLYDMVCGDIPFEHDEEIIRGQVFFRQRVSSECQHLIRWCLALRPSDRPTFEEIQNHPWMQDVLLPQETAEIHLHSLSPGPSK

Cn1sc(=O)n(Cc2ccccc2)c1=O [TDZD-8, 4-benzyl-2-methyl-1,2,4-thiadiazolidine-3,5-dione]
viability at 20 µM (CD34+CD10− ALL cells): 22.3%
% Inhibition mean (GSK3B (GSK3 beta)): 99%
inhibition at 20 µM (GSK3B (GSK3 beta)): 98%
inhibition at 20 µM (PRKCG (PKC gamma)): 103%
inhibition at 20 µM (PRKCZ (PKC zeta)): 100%
inhibition at 20 µM (FGFR1): 1%
inhibition at 20 µM (PRKCE (PKC epsilon)): 99%
inhibition at 20 µM (PIM1): 95%
inhibition at 20 µM (PRKACA (PKA)): 18%
inhibition at 20 µM (CDK1/cyclin B): 15%
inhibition at 20 µM (SYK): 99%
inhibition at 20 µM (MET (cMet)): 90%
inhibition at 20 µM (MAPK14 (p38 alpha)): 97%
inhibition at 20 µM (IGF1R): -2%
inhibition at 20 µM (BTK): 72%
inhibition at 20 µM (MAP2K1 (MEK1)): 80%
inhibition at 20 µM (INSR): 9%
inhibition at 20 µM (TEK (Tie2)): 9%
% Inhibition mean (TEK (Tie2); TDZD-8 20 μM): little to no inhibition
inhibition at 20 µM (KDR (VEGFR2)): 100%
inhibition at 20 µM (CSNK2A1 (CK2 alpha 1)): 27%
inhibition at 20 µM (DYRK3): 85%
inhibition at 20 µM (AKT1 (PKB alpha)): 102%
inhibition at 20 µM (ERBB2 (HER2)): 12%
inhibition at 20 µM (ROCK1): 113%
inhibition at 20 µM (EGFR (ErbB1)): 1%
inhibition at 20 µM (PRKCA (PKC alpha)): 102%
inhibition at 20 µM (STK6 (Aurora A)): 99%
inhibition at 20 µM (JAK3): -1%
inhibition at 20 µM (FLT3): 99%
IC50 (FLT3; titration curve, FIG. 13C, read-out: in vitro IC50): 673 nM
inhibition at 20 µM (PRKCI (PKC iota)): 100%
IC50 (PRKCI (PKC iota); [2]): 5500 nM
inhibition at 20 µM (PRKCB1 (PKC beta I)): 98%
IC50 (PRKCB1 (PKC beta I); [2]): 1400 nM
inhibition at 20 µM (PRKCD (PKC delta)): 102%
IC50 (PRKCD (PKC delta); [2]): 1100 nM
cleavage of pro-caspases 3, 8 or PARP [1]: no cleavage of pro-caspases 3, 8 or PARP was detected
